Data as given in paper PMC2792609, “Effect of methomyl on hepatic mixed function oxidases in rats” (Indian Journal of Pharmacology, 2008).

What was measured:
[1] = system: Cytochrome c reductase; test: Hepatic microsomal cytochrome c reductase activity; type: in vivo, rat
Protocol: (§1) Adult male rats (weighing 200-230 g) were divided into four groups of six animals each. Group 1 received an equivalent amount of saline and served as control. Animals from group 2, 3, and 4 were given methomyl 1, 2, and 4 mg/kg body weight i.p. respectively, between 8: 00 a.m. and 9:00 a.m., for three consecutive days. In the second set of experiments, adult male rats were divided into four groups. Animals from group 2, 3, and 4 were injected with 4 mg/kg body weight methomyl for one, three, and five successive days. The volume injected into the rats of body weight 200 g was 1 ml. In another experiment, adult female rats and old male rats (weighing 350-450 g, 8 months old) were divided into two groups of six animals each. Group 2 of each category received methomyl (4 mg/kg body weight, i.p., for three successive days), and group 1 of each category received an equivalent amount of saline and served as the control group.
(§2) The rats were sacrificed by cervical dislocation, 24 hours after the last dose. Their livers were perfused in situ with ice cold 1.15% KCl containing 0.05 mM EDTA, rapidly excised, blotted dry, weighed, minced and homogenized with two volumes of ice cold 0.25 M sucrose solution, in a Potter-Elvehjem type homogenizer. The homogenate was centrifuged at 10,000 × g for 10 min, in a refrigerated centrifuge (REMI C-24). The microsomes were isolated by the procedure described by of Cinti et al.[4] The microsomal pellet was suspended in phosphate buffer (0.1 M, pH 7.4) and the suspension was used for the microsomal enzyme assays. Microsomal protein content was measured by the Biuret method, using bovine serum albumin as the standard.[5]
(§3) The microsomal electron transport components (cytochrome P450 and cytochrome b5) were determined using Hitachi UV-Visible double beam recording spectrophotometer, by the procedure of Omura and Sato.[67] Cytochrome c reductase activity was determined using the method recommended by Masters et al.[8] Aminopyrine N-demethylase activity was assayed according to the procedure described by Schenkman et al.[9] Formaldehyde liberated during N-demethylation was estimated by the procedure described by Nash.[10] Aniline hydroxylase assay was performed using the procedure reported by Govindwar and Dalvi.[11]

[2] = system: Aminopyrine N-demethylase; test: Hepatic microsomal aminopyrine N-demethylase activity; type: in vivo, rat
Protocol: as §1, §2, §3

[3] = system: Aniline hydroxylase; test: Hepatic microsomal aniline hydroxylase activity; type: in vivo, rat; conditions: for decrease in the activity of aniline hydroxylase / decrease in activity of aniline hydroxylase: vs control
Protocol: as §1, §2, §3

[4] = system: aspartate aminotransferase (SGOT); test: Serum aspartate aminotransferase (SGOT) activity; type: in vivo, rat; conditions: for Increased activity of aspartate aminotransferase: 3 days
Protocol: (§4) Adult male rats (weighing 200-230 g) were divided into four groups of six animals each. Group 1 received an equivalent amount of saline and served as control. Animals from group 2, 3, and 4 were given methomyl 1, 2, and 4 mg/kg body weight i.p. respectively, between 8: 00 a.m. and 9:00 a.m., for three consecutive days. In the second set of experiments, adult male rats were divided into four groups. Animals from group 2, 3, and 4 were injected with 4 mg/kg body weight methomyl for one, three, and five successive days. The volume injected into the rats of body weight 200 g was 1 ml. […]
(§5) Alanine aminotransferase and aspartate aminotransferase activity was measured using the Reitman and Frankel[12] method. Alkaline phosphatase activity was measured using Span diagnostic kits.[13] Cholinesterase activity was measured using the kinetic test method of Knedel et al.[14]

[5] = system: alanine aminotransferase (SGPT); test: Serum alanine aminotransferase (SGPT) activity; type: in vivo, rat; conditions: for Increased activity of alanine aminotransferase: 3 days
Protocol: as §4, §5

[6] = Serum total protein; type: in vivo, rat; conditions: female rats; for Serum total protein: for 3 days; for decrease in total protein content: 3 days
[7] = system: mixed function oxidases; conditions: quails; cited from earlier work
[8] = system: Male Wistar rats; conditions: 4 mg/kg; cited from earlier work
[9] = classification; cited from earlier work
[10] = adult female rat, 4 mg/kg i.p., three days, vs control
[11] = adult female rats, 4 mg/kg body weight, i.p., three days
[12] = adult male rats, 1 mg/kg i.p., for 3 days
[13] = adult male rats, 2 mg/kg i.p., for 3 days
[14] = adult male rats, 4 mg/kg i.p., 3 days, vs control
[15] = adult male rats, 4 mg/kg i.p., for 3 days
[16] = adult rats, 4 mg/kg i.p., 1 day of treatment
[17] = adult rats, 4 mg/kg i.p., 3 days of treatment
[18] = adult rats, 4 mg/kg i.p., 5 days of treatment
[19] = old male rat, 4 mg/kg i.p., three days, vs control
[20] = old male rats, 4 mg/kg body weight, i.p., three days
[21] = female rats, 4 mg/kg body weight i.p., for 3 days
[22] = male rats, 1 mg/kg body weight i.p., for three days
[23] = male rats, 2 mg/kg body weight i.p., for three days
[24] = male rats, 4 mg/kg body weight i.p., for three days

With `CNC(=O)ON=C(C)SC` [methomyl, S-methyl-N-(methyl carbomyl)-thioacetimidate] the “decrease in the activity of cytochrome c reductase” value [1, 10] was 42%, the Cytochrome c reductase [1, 11] was 23.07 nmole of cytochrome c reduced/min/mg microsomal protein and the Cytochrome c reductase [1, 12] was 35.73 nmole of cytochrome c reduced/min/mg microsomal protein. For the same compound, the Cytochrome c reductase [1, 13] was 32.80 nmole of cytochrome c reduced/min/mg microsomal protein, the “increase in cytochrome c reductase activity” value [1, 14] was 14% and the Cytochrome c reductase [1, 15] was 36.93 nmole of cytochrome c reduced/min/mg microsomal protein. The “change in the activity of cytochrome c reductase” value ([1]; adult male rats, 4 mg/kg i.p., one, three and five days) was “No significant change”, the Cytochrome c reductase [1, 16] was 31.3 nmole of cytochrome c reduced/min/mg microsomal protein and the Cytochrome c reductase [1, 17] was 26.7 nmole of cytochrome c reduced/min/mg microsomal protein. For the same compound, the Cytochrome c reductase [1, 18] was 24.2 nmole of cytochrome c reduced/min/mg microsomal protein, the “decrease in cytochrome c reductase” value [1, 19] was 7% and the Cytochrome c reductase [1, 20] was 33.30 nmole of cytochrome c reduced/min/mg microsomal protein. For the same compound, the “decrease in the activity of aminopyrine N-demethylase” value [2, 10] was 26%, the “Aminopyrine N-demethylase” value [2, 11] was 3.30 nmole of formaldehyde liberated/min/mg microsomal protein and the “Aminopyrine N-demethylase” value [2, 12] was 3.2 nmole of formaldehyde liberated/min/mg microsomal protein. For the same compound, the “decrease in the activity of aminopyrine N-demethylase” value ([2]; adult male rats, 2 mg/kg i.p., 3 days, vs control) was 50%, the “Aminopyrine N-demethylase” value [2, 13] was 1.9 nmole of formaldehyde liberated/min/mg microsomal protein and the “decrease in the activity of aminopyrine N-demethylase” value [2, 14] was 40%. For the same compound, the “decrease in activity of aminopyrine N-demethylase” value ([2]; adult male rats, 4 mg/kg i.p., five days, vs control) was 31%, the “Aminopyrine N-demethylase” value [2, 15] was 2.3 nmole of formaldehyde liberated/min/mg microsomal protein and the “decrease in activity of aminopyrine N-demethylase” value ([2]; adult male rats, 4 mg/kg i.p., one day, vs control) was 31%. The “decrease in activity of aminopyrine N-demethylase” value ([2]; adult male rats, 4 mg/kg i.p., three days, vs control) was 51%, the “Aminopyrine N-demethylase” value [2, 16] was 3.11 nmole of formaldehyde liberated/min/mg microsomal protein and the “Aminopyrine N-demethylase” value [2, 17] was 2.20 nmole of formaldehyde liberated/min/mg microsomal protein. The “Aminopyrine N-demethylase” value [2, 18] was 3.09 nmole of formaldehyde liberated/min/mg microsomal protein, the “decrease in aminopyrine N-demethylase” value [2, 19] was 50% and the “Aminopyrine N-demethylase” value [2, 20] was 2.26 nmole of formaldehyde liberated/min/mg microsomal protein. For the same compound, the “decrease in the activity of aniline hydroxylase” value ([3]; adult female rat, 4 mg/kg i.p., three days) was 43%, the Aniline hydroxylase [3, 11] was 0.45 nmole of p-aminophenol formed/min/mg/microsomal protein and the Aniline hydroxylase [3, 12] was 1.35 nmole of p-aminophenol formed/min/mg microsomalprotein. The Aniline hydroxylase [3, 13] was 1.17 nmole of p-aminophenol formed/min/mg microsomalprotein, the “decrease in the activity of aniline hydroxylase” value ([3]; adult male rats, 4 mg/kg i.p., 3 days) was 27% and the “decrease in activity of aniline hydroxylase” value ([3]; adult male rats, 4 mg/kg i.p., five days) was 17%. The Aniline hydroxylase [3, 15] was 0.80 nmole of p-aminophenol formed/min/mg microsomalprotein, the “decrease in activity of aniline hydroxylase” value ([3]; adult male rats, 4 mg/kg i.p., one day) was 47% and the “decrease in activity of aniline hydroxylase” value ([3]; adult male rats, 4 mg/kg i.p., three days) was 71%. The Aniline hydroxylase [3, 16] was 0.60 nmole of p-aminophenol formed/min/mg/microsomal protein, the Aniline hydroxylase [3, 17] was 0.33 nmole of p-aminophenol formed/min/mg/microsomal protein and the Aniline hydroxylase [3, 18] was 0.93 nmole of p-aminophenol formed/min/mg/microsomal protein. For the same compound, the Aniline hydroxylase [3, 20] was 1.80 nmole of p-aminophenol formed/min/mg/microsomal protein, the SGOT [4, 21] was 51.0 u/l and the “Increased activity of aspartate aminotransferase” value ([4]; female rats, 4 mg/kg i.p.) was 39%. For the same compound, the SGOT [4, 22] was 35.7 u/l, the SGOT [4, 23] was 37.9 u/l and the “Increased activity of aspartate aminotransferase” value ([4]; male rats, 2 mg/kg i.p.) was 9%. The SGOT [4, 24] was 40.9 u/l, the “Increased activity of aspartate aminotransferase” value ([4]; male rats, 4 mg/kg i.p.) was 8% and the SGPT [5, 21] was 50.0 u/l. For the same compound, the “Increased activity of alanine aminotransferase” value ([5]; female rats, 4 mg/kg i.p.) was 24%, the SGPT [5, 22] was 47.3 u/l and the SGPT [5, 23] was 50.0 u/l. The “Increased activity of alanine aminotransferase” value ([5]; male rats, 2 mg/kg i.p.) was 12%, the SGPT [5, 24] was 53.6 u/l and the “Increased activity of alanine aminotransferase” value ([5]; male rats, 4 mg/kg i.p.) was 20%. The Serum total protein ([6]; 1 mg/kg body weight i.p.) was 1.90 g/dL, the “decrease in total protein content” value ([6]; 1 mg/kg i.p.) was 14% and the Serum total protein ([6]; 2 mg/kg body weight i.p.) was 1.96 g/dL. For the same compound, the “decrease in total protein content” value ([6]; 2 mg/kg i.p.) was 11%, the “activity of mixed function oxidases” value [7] was “inhibited” and the “duration of maximum severity” value [8] was “about 30 min”. For the same compound, the “time to development of signs of toxicity” value [8] was at most 2 min, the “time to maximum severity (muscle fasciculation and convulsions)” value [8] was 5 to 10 min and the “time until free from obvious toxicity” value [8] was at most 90 min. The pesticide toxicity category [9] was “category-1”.
